Experimental data published in publication PMC6219668 (Oncotarget, 2018).

Tested on: panel of nearly 500 cancer cell lines
Test: Cancer Cell Line Encyclopedia profiling, 3-day CellTiter-Glo
Type: cell-based
Conditions: Homo sapiens

`CN(C)C(=O)c1cc2cnc(Nc3ccc(N4CCNCC4)cn3)nc2n1C1CCCC1` [Ribociclib, 7-cyclopentyl-2-(5-piperazin-1-yl-pyridin-2-ylamino)-7H-pyrrolo[2,3-d]pyrimidine-6-carboxylic acid dimethylamide] was tested, and the IC50 (NCI-H1666) was greater than 8 µM, the EC50 (NCI-H1693) was 351 nM and the IC50 (NCI-H1693) was greater than 8 µM. The EC50 (NCI-H1694) was greater than 8000 nM, the IC50 (NCI-H1694) was greater than 8 µM and the EC50 (NCI-H1703) was 1110 nM. The IC50 (NCI-H1703) was greater than 8 µM, the EC50 (NCI-H1792) was greater than 8000 nM and the IC50 (NCI-H1792) was greater than 8 µM. The EC50 (NCI-H1793) was 4.18 nM, the IC50 (NCI-H1793) was greater than 8 µM and the EC50 (NCI-H1944) was 2500 nM. For the same compound, the IC50 (NCI-H1944) was greater than 8 µM, the EC50 (NCI-H1975) was 1050 nM and the IC50 (NCI-H1975) was greater than 8 µM. The EC50 (NCI-H2009) was greater than 8000 nM, the IC50 (NCI-H2009) was greater than 8 µM and the EC50 (NCI-H2030) was 1290 nM. The IC50 (NCI-H2030) was greater than 8 µM, the EC50 (NCI-H2052) was 20.7 nM and the IC50 (NCI-H2052) was greater than 8 µM. For the same compound, the EC50 (NCI-H2087) was 338 nM, the IC50 (NCI-H2087) was greater than 8 µM and the EC50 (NCI-H2122) was greater than 8000 nM. It also gave an IC50 (NCI-H2122) of 3.73 µM, an EC50 (NCI-H2170) greater than 8000 nM and an IC50 (NCI-H2170) greater than 8 µM. The EC50 (NCI-H2228) was greater than 8000 nM, the IC50 (NCI-H2228) was greater than 8 µM and the EC50 (NCI-H2286) was 506 nM. The IC50 (NCI-H2286) was greater than 8 µM, the EC50 (NCI-H2444) was greater than 8000 nM and the IC50 (NCI-H2444) was greater than 8 µM. For the same compound, the EC50 (NCI-H2452) was 300 nM, the IC50 (NCI-H2452) was greater than 8 µM and the EC50 (NCI-H3255) was greater than 8000 nM. For the same compound, the IC50 (NCI-H3255) was greater than 8 µM, the EC50 (NCI-N87) was greater than 8000 nM and the IC50 (NCI-N87) was greater than 8 µM. The EC50 (NUGC-3) was greater than 8000 nM, the IC50 (NUGC-3) was greater than 8 µM and the EC50 (NUGC-4) was 212 nM. For the same compound, the IC50 (NUGC-4) was 1.07 µM, the EC50 (OC-314) was greater than 8000 nM and the IC50 (OC-314) was greater than 8 µM. It also gave an EC50 (OCI-AML2) of 838 nM, an IC50 (OCI-AML2) of 1.16 µM and an EC50 (OCI-AML-5) of 187 nM. For the same compound, the IC50 (OCI-AML-5) was greater than 8 µM, the EC50 (OCI-Ly10) was greater than 8000 nM and the IC50 (OCI-Ly10) was greater than 8 µM. It also gave an EC50 (OE33) greater than 8000 nM, an IC50 (OE33) greater than 8 µM and an EC50 (OV-90) of 69.4 nM. For the same compound, the IC50 (OV-90) was greater than 8 µM, the EC50 (OVCAR-3) was greater than 8000 nM and the IC50 (OVCAR-3) was greater than 8 µM. For the same compound, the EC50 (OVCAR-4) was greater than 8000 nM, the IC50 (OVCAR-4) was greater than 8 µM and the EC50 (OVCAR-8) was greater than 8000 nM. It also gave an IC50 (OVCAR-8) greater than 8 µM, an EC50 (OVSAHO) greater than 8000 nM and an IC50 (OVSAHO) greater than 8 µM. The EC50 (P3HR-1) was greater than 8000 nM, the IC50 (P3HR-1) was greater than 8 µM and the EC50 (P12-Ichikawa) was 797 nM. The IC50 (P12-Ichikawa) was 3.74 µM, the EC50 (P31-FUJ) was greater than 8000 nM and the IC50 (P31-FUJ) was greater than 8 µM. For the same compound, the EC50 (PANC-03-27) was greater than 8000 nM, the IC50 (PANC-03-27) was greater than 8 µM and the EC50 (PC-14) was 4030 nM. For the same compound, the IC50 (PC-14) was greater than 8 µM, the EC50 (PLC-PRF-5) was greater than 8000 nM and the IC50 (PLC-PRF-5) was greater than 8 µM. For the same compound, the EC50 (PSN1) was 2030 nM, the IC50 (PSN1) was greater than 8 µM and the EC50 (Panc 02.03) was greater than 8000 nM. The IC50 (Panc 02.03) was greater than 8 µM, the EC50 (Panc 04.03) was greater than 8000 nM and the IC50 (Panc 04.03) was greater than 8 µM. It also gave an EC50 (Panc1005) greater than 8000 nM, an IC50 (Panc1005) greater than 8 µM and an EC50 (Pfeiffer) greater than 8000 nM. For the same compound, the IC50 (Pfeiffer) was greater than 8 µM, the EC50 (RL95-2) was 3350 nM and the IC50 (RL95-2) was greater than 8 µM. For the same compound, the EC50 (RPMI 8402) was 951 nM, the IC50 (RPMI 8402) was 1.54 µM and the EC50 (RPMI-7951) was 807 nM. For the same compound, the IC50 (RPMI-7951) was greater than 8 µM, the EC50 (RT-112) was 545 nM and the IC50 (RT-112) was greater than 8 µM. The EC50 (RVH-421) was greater than 8000 nM, the IC50 (RVH-421) was greater than 8 µM and the EC50 (Raji) was greater than 8000 nM. The IC50 (Raji) was greater than 8 µM, the EC50 (SAOS-2) was greater than 8000 nM and the IC50 (SAOS-2) was greater than 8 µM. The EC50 (SBC-5) was 2300 nM, the IC50 (SBC-5) was greater than 8 µM and the EC50 (SCC-9) was 2.54 nM. It also gave an IC50 (SCC-9) greater than 8 µM, an EC50 (SCaBER) of 1950 nM and an IC50 (SCaBER) greater than 8 µM. It also gave an EC50 (SF-126) greater than 8000 nM, an IC50 (SF-126) greater than 8 µM and an EC50 (SF-295) of 323 nM. The IC50 (SF-295) was greater than 8 µM, the EC50 (SHP77) was greater than 8000 nM and the IC50 (SHP77) was greater than 8 µM. The EC50 (SIG-M5) was 79.6 nM, the IC50 (SIG-M5) was 0.22 µM and the EC50 (SJRH30) was greater than 8000 nM. The IC50 (SJRH30) was greater than 8 µM, the EC50 (SJSA-1) was 1180 nM and the IC50 (SJSA-1) was greater than 8 µM. For the same compound, the EC50 (SK-BR-3) was greater than 8000 nM, the IC50 (SK-BR-3) was greater than 8 µM and the EC50 (SK-CO-1) was 2760 nM. It also gave an IC50 (SK-CO-1) greater than 8 µM, an EC50 (SK-ES1) of 43.6 nM and an IC50 (SK-ES1) greater than 8 µM. For the same compound, the EC50 (SK-HEP1) was 373 nM, the IC50 (SK-HEP1) was greater than 8 µM and the EC50 (SK-LMS-1) was 1260 nM. It also gave an IC50 (SK-LMS-1) greater than 8 µM, an EC50 (SK-LU-1) of 682 nM and an IC50 (SK-LU-1) greater than 8 µM. It also gave an EC50 (SK-MEL-2) greater than 8000 nM, an IC50 (SK-MEL-2) greater than 8 µM and an IC50 (SK-MEL-5) greater than 8 µM. The EC50 (SK-MEL-24) was greater than 8000 nM, the IC50 (SK-MEL-24) was greater than 8 µM and the EC50 (SK-MEL-30) was greater than 8000 nM. It also gave an IC50 (SK-MEL-30) greater than 8 µM, an EC50 (SK-MES-1) of 5260 nM and an IC50 (SK-MES-1) of 5.27 µM. For the same compound, the EC50 (SK-MM-2) was greater than 8000 nM, the IC50 (SK-MM-2) was greater than 8 µM and the EC50 (SK-N-AS) was 457 nM. For the same compound, the IC50 (SK-N-AS) was greater than 8 µM, the EC50 (SK-N-DZ) was 880 nM and the IC50 (SK-N-DZ) was 3.44 µM. For the same compound, the EC50 (SK-N-SH) was greater than 8000 nM, the IC50 (SK-N-SH) was 7.74 µM and the EC50 (SK-OV-3) was greater than 8000 nM. The IC50 (SK-OV-3) was greater than 8 µM, the EC50 (SKNBE2) was 328 nM and the IC50 (SKNBE2) was 1.8 µM. For the same compound, the EC50 (SNU1) was 2400 nM, the IC50 (SNU1) was greater than 8 µM and the EC50 (SNU-16) was greater than 8000 nM. It also gave an IC50 (SNU-16) greater than 8 µM, an EC50 (SNU-182) greater than 8000 nM and an IC50 (SNU-182) greater than 8 µM. For the same compound, the EC50 (SNU-387) was greater than 8000 nM, the IC50 (SNU-387) was greater than 8 µM and the EC50 (SNU-398) was 569 nM. It also gave an IC50 (SNU-398) greater than 8 µM, an EC50 (SNU-423) greater than 8000 nM and an IC50 (SNU-423) greater than 8 µM. It also gave an EC50 (SNU-449) greater than 8000 nM, an IC50 (SNU-449) greater than 8 µM and an EC50 (SNU-475) greater than 8000 nM. For the same compound, the IC50 (SNU-475) was greater than 8 µM, the EC50 (SNU-C2B) was greater than 8000 nM and the IC50 (SNU-C2B) was greater than 8 µM. The EC50 (SU-DHL10) was 5750 nM, the IC50 (SU-DHL10) was 5.75 µM and the EC50 (SU-DHL-4) was 329 nM. It also gave an EC50 (SU-DHL-6) of 742 nM, an IC50 (SU-DHL-6) greater than 8 µM and an EC50 (SU-DHL-8) of 1600 nM. The IC50 (SU-DHL-8) was 3.73 µM, the EC50 (SU.86.86) was greater than 8000 nM and the IC50 (SU.86.86) was greater than 8 µM. The EC50 (SUP-T1) was greater than 8000 nM, the IC50 (SUP-T1) was greater than 8 µM and the EC50 (SW48) was 19.4 nM. The IC50 (SW48) was greater than 8 µM, the EC50 (SW480) was 6210 nM and the IC50 (SW480) was greater than 8 µM. It also gave an EC50 (SW780) of 159 nM, an IC50 (SW780) greater than 8 µM and an EC50 (SW900) of 385 nM. For the same compound, the IC50 (SW900) was greater than 8 µM, the EC50 (SW1088) was greater than 8000 nM and the IC50 (SW1088) was greater than 8 µM. It also gave an EC50 (SW1353) greater than 8000 nM, an IC50 (SW1353) greater than 8 µM and an EC50 (SW1417) greater than 8000 nM. For the same compound, the IC50 (SW1417) was greater than 8 µM, the EC50 (SW1573) was 324 nM and the IC50 (SW1573) was greater than 8 µM. It also gave an EC50 (SW1990) of 593 nM, an IC50 (SW1990) greater than 8 µM and an EC50 (SW-403) greater than 8000 nM. For the same compound, the IC50 (SW-403) was 4.34 µM, the EC50 (SW-620) was 450 nM and the IC50 (SW-620) was greater than 8 µM. The EC50 (T47D) was greater than 8000 nM, the IC50 (T47D) was greater than 8 µM and the EC50 (T98G) was greater than 8000 nM. It also gave an IC50 (T98G) greater than 8 µM.
